Consider 22 compounds from patent US10124004B2, “Pyrido[3,4-d]pyrimidine derivative and pharmaceutically acceptable salt thereof” (Teijin Pharma Limited, priority 2015, dated 2018).

In one assay the target is T1, CDK2/cyclin A2 (Homo sapiens, UniProt P24941).
T1 construct: purchased Carna Biosciences, Inc. QS S Assist CDK2/Cyclin A2_FP Kit
Description: Human CDK2/cyclin A2 inhibitory activity (QS S Assist CDK2/Cyclin A2_FP Kit, IMAP fluorescence polarization). The class given is biochemical. The note with it: Human CDK2/cyclin A2 inhibitory activity; read-out: CDK2 Activity symbol. In a few lines: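 Kinase activity read as fluorescence polarization (485/535 nm) after phosphorylated fluorescent substrate binds IMAP reagent (30 min, RT, dark). Enzyme (2.5 ng/well) reacted 60 min at RT with ATP/substrate/metal in HEPES pH 7.4 buffer with Tween 20 and DTT; no-enzyme wells define 0% activity; IC50 by curve fit.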
For orientation: Fluorescence polarisation rises when a labelled molecule tumbles more slowly, as on binding a larger partner.

The target of a further assay is T2, CDK4/cyclin D3 (Homo sapiens, UniProt P11802).
T2 construct: purchased Carna Biosciences, Inc. QS S Assist CDK4/Cyclin D3_FP Kit
T2 sequence (P11802 whole entry): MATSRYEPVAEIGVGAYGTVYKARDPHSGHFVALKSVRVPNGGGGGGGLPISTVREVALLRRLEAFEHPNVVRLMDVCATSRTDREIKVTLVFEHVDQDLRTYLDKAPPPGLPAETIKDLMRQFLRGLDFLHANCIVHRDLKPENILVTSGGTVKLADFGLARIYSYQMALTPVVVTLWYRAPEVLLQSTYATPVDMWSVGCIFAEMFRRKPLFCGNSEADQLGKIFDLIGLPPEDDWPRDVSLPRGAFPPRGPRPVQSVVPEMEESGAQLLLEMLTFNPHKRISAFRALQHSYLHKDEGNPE
T2 sequence (P30281 whole entry partner): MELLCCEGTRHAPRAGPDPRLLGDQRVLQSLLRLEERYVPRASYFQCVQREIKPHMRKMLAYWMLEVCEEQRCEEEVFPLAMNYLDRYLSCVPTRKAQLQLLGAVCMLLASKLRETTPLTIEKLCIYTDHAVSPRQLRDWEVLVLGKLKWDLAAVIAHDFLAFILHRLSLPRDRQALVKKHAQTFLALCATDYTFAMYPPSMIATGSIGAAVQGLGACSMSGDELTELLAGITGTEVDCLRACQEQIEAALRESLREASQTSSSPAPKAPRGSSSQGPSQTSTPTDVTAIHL
Description: Human CDK4/cyclin D3 inhibitory activity (QS S Assist CDK4/Cyclin D3_FP Kit, IMAP fluorescence polarization). Type of assay: biochemical. Particulars: Human CDK4/cyclin D3 inhibitory activity; read-out: CDK4 Activity symbol. In a few lines:
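IMAP fluorescence polarization kit: CDK4/cyclin D3 at 12.5-25 ng/well with kit ATP/substrate/metal mix in 20 mM HEPES pH 7.4, 0.01% Tween20, 2 mM DTT, 45 min at room temperature. FP read at 485/535 nm after 30 min binding; IC50 from dose-response fit of percent inhibition versus enzyme and no-enzyme controls.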

SMILES strings stand for the structures. Where only a bound is given, the exact number is not on record here.

As to `O[C@H]1CC[C@H](Nc2nc(C(F)F)cc3cnc(Nc4ccc(N5CCNCC5)nn4)nc23)CC1` [Compound 387], the IC50 at CDK2/cyclin A2 was 10 to 100 nM; on CDK4/cyclin D3 it was under 10 nM.

Turning to `CN(C)CCOc1ccc(Nc2ncc3cc(C(F)F)nc(N[C@H]4CC[C@H](O)CC4)c3n2)nc1` [Compound 388], the IC50 at CDK2/cyclin A2 was at least 100 nM; at CDK4/cyclin D3 it was under 10 nM.

Regarding `CO[C@H](C)c1cc2cnc(Nc3ccc(C(=O)N4CCNCC4)cn3)nc2c(NC(C)C)n1` [Compound 389], the IC50 at CDK2/cyclin A2 is 10 to 100 nM; at CDK4/cyclin D3, under 10 nM.

Consider `COC1CCC(Nc2nc(C(C)OC)cc3cnc(Nc4ccc(CN5CCNCC5)cn4)nc23)CC1` (centres unmarked) [Compound 395], for which the values for the IC50 on CDK2/cyclin A2 and on CDK4/cyclin D3 were at least 100 nM and under 10 nM, respectively.

For `COC(C)c1cc2cnc(Nc3ccc(CN4CCNCC4)cn3)nc2c(NCC2CCCOC2)n1` (centres unmarked) [Compound 400], the values for the IC50 at CDK2/cyclin A2 and on CDK4/cyclin D3 were at least 100 nM and under 10 nM, respectively.

For the compound `COC(C)c1cc2cnc(Nc3ccc(CN4CCNCC4)cn3)nc2c(NC2CCC(C)(C)OC2)n1` (centres unmarked) [Compound 432], the IC50 on CDK2/cyclin A2 was at least 100 nM; on CDK4/cyclin D3, under 10 nM.

Take `COC(C)c1cc2cnc(Nc3ccc(CN4CCNCC4)cn3)nc2c(SC(C)C)n1` (centres unmarked) [Compound 456]: the IC50 on CDK2/cyclin A2 is at least 100 nM; on CDK4/cyclin D3, under 10 nM.

Consider `CO[C@H](C)c1cc2cnc(Nc3ccc(N4CCN[C@@H](C)C4=O)cn3)nc2c(NC(C)C)n1` [Compound 463], for which the IC50 on CDK2/cyclin A2 is at least 100 nM; on CDK4/cyclin D3, under 10 nM.

As to `CO[C@H](C)c1cc2cnc(Nc3ccc(N4CC[C@@H](N)[C@@H](F)C4)cn3)nc2c(NC(C)C)n1` [Compound 466], the IC50 at CDK2/cyclin A2 is at least 100 nM; at CDK4/cyclin D3, under 10 nM.

On to `CO[C@H](C)c1cc2cnc(Nc3ccc(N4CC[C@H](N)[C@@H](F)C4)cn3)nc2c(NC(C)C)n1` [Compound 467], for which the IC50 at CDK2/cyclin A2 was at least 100 nM; on CDK4/cyclin D3 it was under 10 nM.

For `CC(C)Nc1nc([C@@H](C)O)cc2cnc(Nc3ccc(OCCN(C)C)nn3)nc12` [Compound 474], the IC50 at CDK2/cyclin A2 is at least 100 nM; at CDK4/cyclin D3 it was under 10 nM.

For the compound `CC(C)Nc1nc([C@@H](C)O)cc2cnc(Nc3ccc(N4CCC(N(C)C)CC4)nn3)nc12` [Compound 491], the IC50 at CDK2/cyclin A2 is at least 100 nM; on CDK4/cyclin D3 it was under 10 nM.

In the case of `CO[C@H](C)c1cc2cnc(Nc3ccc(N4CCCNCC4=O)cn3)nc2c(NC(C)C)n1` [Compound 492], the IC50 was 10 to 100 nM on CDK2/cyclin A2 and under 10 nM at CDK4/cyclin D3.

As for `CNC1CCN(c2ccc(Nc3ncc4cc([C@@H](C)O)nc(NC(C)C)c4n3)nn2)CC1` [Compound 497], the IC50 at CDK2/cyclin A2 is at least 100 nM; on CDK4/cyclin D3, under 10 nM.

In the case of `CO[C@H](C)c1cc2cnc(Nc3ccc(N4CCNCCC4=O)cn3)nc2c(NC(C)C)n1` [Compound 499], the values for the IC50 on CDK2/cyclin A2 and at CDK4/cyclin D3 were 10 to 100 nM and under 10 nM, respectively.

In the case of `COC(C)c1cc2cnc(Nc3ccc(N4CC5CCC(C4)N5)cn3)nc2c(NC(C)C)n1` (centres unmarked) [Compound 501], the values for the IC50 on CDK2/cyclin A2 and on CDK4/cyclin D3 were at least 100 nM and under 10 nM, respectively.

With `CC(C)Nc1nc([C@@H](C)O)cc2cnc(Nc3ccc(N4CCN[C@@H](C)C4=O)cn3)nc12` [Compound 507], the figures for the IC50 at CDK2/cyclin A2 and at CDK4/cyclin D3 were at least 100 nM and under 10 nM, respectively.

On to `CO[C@H](C)c1cc2cnc(Nc3ccc(CN4CCN(CCO)CC4)cn3)nc2c(NC(C)C)n1` [Compound 508], for which the IC50 at CDK2/cyclin A2 is at least 100 nM; at CDK4/cyclin D3, under 10 nM.

With `CNCC(F)COc1ccc(Nc2ncc3cc([C@@H](C)OC)nc(NC(C)C)c3n2)nc1` (some centres unmarked) [Compound 509], the IC50 on CDK2/cyclin A2 is at least 100 nM; at CDK4/cyclin D3, under 10 nM.

As to `CC(C)Nc1nc([C@@H](C)O)cc2cnc(Nc3ccc(N4CCN(CCO)CC4)nn3)nc12` [Compound 510], the IC50 on CDK2/cyclin A2 was at least 100 nM; at CDK4/cyclin D3, under 10 nM.

`CO[C@H](C)c1cc2cnc(Nc3ccc(N4CC5(CNC5)CC4=O)cn3)nc2c(NC(C)C)n1` [Compound 511]: the IC50 was 10 to 100 nM at CDK2/cyclin A2 and under 10 nM on CDK4/cyclin D3.

As to `CNC1CC2(C1)CN(c1ccc(Nc3ncc4cc([C@@H](C)OC)nc(NC(C)C)c4n3)nc1)C2` [Compound 512], the IC50 on CDK2/cyclin A2 was at least 100 nM; at CDK4/cyclin D3, under 10 nM.
